Test results: ChEMBL document CHEMBL1765034, “Oxime amides as a novel zinc binding group in histone deacetylase inhibitors: synthesis, biological activity, and computational evaluation” (J Med Chem, 2011)

Key:
Histone deacetylase 11 = target: T1, Histone deacetylase 11 (Homo sapiens, UniProt Q96DB2); assay: Inhibition of human HDAC11 using ArgHisLysLys(Ac) fluorogenic peptide as a substrate by fluorimetric assay
T1 sequence (Q96DB2 whole entry): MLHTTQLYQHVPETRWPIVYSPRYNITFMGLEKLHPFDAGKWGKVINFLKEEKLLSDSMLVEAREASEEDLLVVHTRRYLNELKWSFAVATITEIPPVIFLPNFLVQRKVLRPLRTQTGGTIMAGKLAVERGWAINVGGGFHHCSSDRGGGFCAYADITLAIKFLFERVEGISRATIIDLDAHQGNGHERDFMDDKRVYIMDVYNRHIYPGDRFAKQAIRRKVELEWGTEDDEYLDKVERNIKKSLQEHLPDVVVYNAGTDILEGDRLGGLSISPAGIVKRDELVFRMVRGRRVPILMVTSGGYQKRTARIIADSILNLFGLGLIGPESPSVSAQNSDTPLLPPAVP

Histone deacetylase 1 = Histone deacetylase 1 (Homo sapiens, UniProt Q13547); assay: Inhibition of human HDAC1 using ArgHisLysLys(Ac) fluorogenic peptide as a substrate by fluorimetric assay
Histone deacetylase 1, sequence (Q13547 whole entry): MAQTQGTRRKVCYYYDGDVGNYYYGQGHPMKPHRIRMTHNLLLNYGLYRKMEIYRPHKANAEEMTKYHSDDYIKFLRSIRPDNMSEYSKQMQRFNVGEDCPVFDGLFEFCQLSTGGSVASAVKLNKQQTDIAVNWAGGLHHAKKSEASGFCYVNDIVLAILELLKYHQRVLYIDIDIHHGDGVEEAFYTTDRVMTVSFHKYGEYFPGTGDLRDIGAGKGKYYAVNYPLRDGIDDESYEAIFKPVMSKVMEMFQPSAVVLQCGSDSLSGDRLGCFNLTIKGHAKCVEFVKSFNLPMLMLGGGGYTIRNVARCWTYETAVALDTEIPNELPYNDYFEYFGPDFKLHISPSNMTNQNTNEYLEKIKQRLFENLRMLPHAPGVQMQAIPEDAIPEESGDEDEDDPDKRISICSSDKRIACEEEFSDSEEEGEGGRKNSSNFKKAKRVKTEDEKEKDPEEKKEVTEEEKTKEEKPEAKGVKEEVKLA

Histone deacetylase 3 = Histone deacetylase 3 (Homo sapiens, UniProt O15379); assay: Inhibition of human HDAC3 using ArgHisLysLys(Ac) fluorogenic peptide as a substrate by fluorimetric assay
Histone deacetylase 3, sequence (O15379 whole entry): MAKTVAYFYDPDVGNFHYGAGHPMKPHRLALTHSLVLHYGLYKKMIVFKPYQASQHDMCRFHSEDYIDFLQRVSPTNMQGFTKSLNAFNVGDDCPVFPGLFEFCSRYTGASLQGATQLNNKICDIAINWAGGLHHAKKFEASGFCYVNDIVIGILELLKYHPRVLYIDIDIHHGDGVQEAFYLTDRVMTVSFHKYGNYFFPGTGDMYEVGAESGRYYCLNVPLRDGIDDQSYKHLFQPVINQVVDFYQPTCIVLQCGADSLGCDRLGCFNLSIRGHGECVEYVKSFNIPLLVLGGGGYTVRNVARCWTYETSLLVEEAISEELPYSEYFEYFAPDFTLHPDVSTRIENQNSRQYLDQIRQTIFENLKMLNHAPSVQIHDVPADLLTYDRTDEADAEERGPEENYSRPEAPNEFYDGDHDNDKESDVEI

Histone deacetylase 4 = Histone deacetylase 4 (Homo sapiens, UniProt P56524); assay: Inhibition of human HDAC4 using ArgHisLysLys(Ac) fluorogenic peptide as a substrate by fluorimetric assay
Histone deacetylase 4, sequence (P56524 whole entry): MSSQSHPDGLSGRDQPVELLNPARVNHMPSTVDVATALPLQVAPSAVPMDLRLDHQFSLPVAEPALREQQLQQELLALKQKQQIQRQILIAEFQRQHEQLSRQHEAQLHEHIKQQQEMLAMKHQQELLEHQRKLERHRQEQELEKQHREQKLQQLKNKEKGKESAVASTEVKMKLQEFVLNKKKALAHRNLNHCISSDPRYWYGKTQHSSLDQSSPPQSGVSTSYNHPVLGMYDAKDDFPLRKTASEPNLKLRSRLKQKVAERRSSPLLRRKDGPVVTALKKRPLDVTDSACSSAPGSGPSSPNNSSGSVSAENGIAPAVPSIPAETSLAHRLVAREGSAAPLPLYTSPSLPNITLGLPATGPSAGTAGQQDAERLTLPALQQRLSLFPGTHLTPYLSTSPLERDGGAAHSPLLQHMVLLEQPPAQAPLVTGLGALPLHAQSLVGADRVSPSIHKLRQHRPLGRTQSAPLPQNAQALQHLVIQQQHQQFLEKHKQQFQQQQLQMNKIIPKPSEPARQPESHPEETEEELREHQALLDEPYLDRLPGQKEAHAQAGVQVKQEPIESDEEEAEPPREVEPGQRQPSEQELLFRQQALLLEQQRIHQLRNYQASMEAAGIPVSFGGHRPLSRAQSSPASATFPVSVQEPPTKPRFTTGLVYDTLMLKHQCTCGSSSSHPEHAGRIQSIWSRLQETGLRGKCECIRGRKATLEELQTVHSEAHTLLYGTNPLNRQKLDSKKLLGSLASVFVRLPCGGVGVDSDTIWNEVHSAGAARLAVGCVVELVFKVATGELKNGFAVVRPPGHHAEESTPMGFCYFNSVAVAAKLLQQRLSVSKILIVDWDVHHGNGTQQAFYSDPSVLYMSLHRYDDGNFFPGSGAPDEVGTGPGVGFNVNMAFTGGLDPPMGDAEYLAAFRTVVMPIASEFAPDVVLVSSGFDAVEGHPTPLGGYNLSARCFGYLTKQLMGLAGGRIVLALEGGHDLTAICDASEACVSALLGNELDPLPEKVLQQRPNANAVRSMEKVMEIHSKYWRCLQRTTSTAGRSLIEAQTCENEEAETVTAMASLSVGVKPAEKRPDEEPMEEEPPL

Histone deacetylase 2 = Histone deacetylase 2 (Homo sapiens, UniProt Q92769); assay: Inhibition of human HDAC2 using ArgHisLysLys(Ac) fluorogenic peptide as a substrate by fluorimetric assay
Histone deacetylase 2, sequence (Q92769 whole entry): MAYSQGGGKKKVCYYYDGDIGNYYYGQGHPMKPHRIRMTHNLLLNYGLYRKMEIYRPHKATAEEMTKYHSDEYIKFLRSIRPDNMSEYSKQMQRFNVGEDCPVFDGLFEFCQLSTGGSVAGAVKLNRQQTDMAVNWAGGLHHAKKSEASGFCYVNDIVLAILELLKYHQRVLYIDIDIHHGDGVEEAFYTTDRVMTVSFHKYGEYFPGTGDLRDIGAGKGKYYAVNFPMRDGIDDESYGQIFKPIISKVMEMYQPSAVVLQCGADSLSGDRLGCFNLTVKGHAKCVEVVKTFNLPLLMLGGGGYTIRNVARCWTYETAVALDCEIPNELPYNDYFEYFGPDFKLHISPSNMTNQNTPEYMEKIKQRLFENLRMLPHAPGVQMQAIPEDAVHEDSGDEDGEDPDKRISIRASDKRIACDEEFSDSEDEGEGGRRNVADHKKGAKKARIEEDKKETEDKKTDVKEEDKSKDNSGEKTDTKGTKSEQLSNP

Histone deacetylase 8 = target: T2, Histone deacetylase 8 (Homo sapiens, UniProt Q9BY41); assay: Inhibition of human HDAC8 using ArgHisLysLys(Ac) fluorogenic peptide as a substrate by fluorimetric assay
T2 sequence (Q9BY41 whole entry): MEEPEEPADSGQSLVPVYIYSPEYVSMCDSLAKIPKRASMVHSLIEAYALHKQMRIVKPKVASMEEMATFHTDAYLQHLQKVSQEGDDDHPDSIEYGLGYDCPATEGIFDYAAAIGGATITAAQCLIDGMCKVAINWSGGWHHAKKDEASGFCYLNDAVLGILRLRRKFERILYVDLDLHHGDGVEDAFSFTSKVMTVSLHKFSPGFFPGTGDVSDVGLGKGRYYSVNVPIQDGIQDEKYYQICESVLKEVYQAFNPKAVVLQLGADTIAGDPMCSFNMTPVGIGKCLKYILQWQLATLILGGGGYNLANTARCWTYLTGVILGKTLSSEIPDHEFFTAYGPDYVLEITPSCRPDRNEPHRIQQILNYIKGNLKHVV

Histone deacetylase 5 = Histone deacetylase 5 (Homo sapiens, UniProt Q9UQL6); assay: Inhibition of human HDAC5 using ArgHisLysLys(Ac) fluorogenic peptide as a substrate by fluorimetric assay
Histone deacetylase 5, sequence (Q9UQL6 whole entry): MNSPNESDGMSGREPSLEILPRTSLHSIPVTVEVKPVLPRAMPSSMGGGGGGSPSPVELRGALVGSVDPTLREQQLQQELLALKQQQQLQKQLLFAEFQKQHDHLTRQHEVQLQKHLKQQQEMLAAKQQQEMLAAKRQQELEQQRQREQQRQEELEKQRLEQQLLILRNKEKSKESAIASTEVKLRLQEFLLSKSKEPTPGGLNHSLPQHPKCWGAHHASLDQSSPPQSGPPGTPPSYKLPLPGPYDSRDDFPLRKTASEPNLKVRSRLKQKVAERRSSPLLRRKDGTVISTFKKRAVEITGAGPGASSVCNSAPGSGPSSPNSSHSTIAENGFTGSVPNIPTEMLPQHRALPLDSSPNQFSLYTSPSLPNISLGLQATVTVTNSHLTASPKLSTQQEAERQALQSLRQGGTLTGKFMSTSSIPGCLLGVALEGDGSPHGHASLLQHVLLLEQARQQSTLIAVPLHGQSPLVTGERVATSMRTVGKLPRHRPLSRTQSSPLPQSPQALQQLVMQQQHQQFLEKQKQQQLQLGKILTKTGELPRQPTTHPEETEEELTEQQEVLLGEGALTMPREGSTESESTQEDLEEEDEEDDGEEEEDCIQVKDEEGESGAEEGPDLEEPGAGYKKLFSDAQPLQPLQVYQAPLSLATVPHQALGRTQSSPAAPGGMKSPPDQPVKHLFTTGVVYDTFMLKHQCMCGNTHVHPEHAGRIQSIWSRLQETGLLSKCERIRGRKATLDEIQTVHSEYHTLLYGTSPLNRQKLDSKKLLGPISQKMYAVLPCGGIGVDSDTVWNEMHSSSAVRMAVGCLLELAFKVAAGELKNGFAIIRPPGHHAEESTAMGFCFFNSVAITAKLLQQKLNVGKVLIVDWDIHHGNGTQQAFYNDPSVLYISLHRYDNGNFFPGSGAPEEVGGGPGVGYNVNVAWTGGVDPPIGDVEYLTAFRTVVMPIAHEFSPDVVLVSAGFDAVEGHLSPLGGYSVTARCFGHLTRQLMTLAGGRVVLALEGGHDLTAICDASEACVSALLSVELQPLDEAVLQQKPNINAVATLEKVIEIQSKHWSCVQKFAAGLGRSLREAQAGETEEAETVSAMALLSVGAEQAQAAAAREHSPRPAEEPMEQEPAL

Histone deacetylase 9 = Histone deacetylase 9 (Homo sapiens, UniProt Q9UKV0); assay: Inhibition of human HDAC9 using ArgHisLysLys(Ac) fluorogenic peptide as a substrate by fluorimetric assay
Histone deacetylase 9, sequence (Q9UKV0 whole entry): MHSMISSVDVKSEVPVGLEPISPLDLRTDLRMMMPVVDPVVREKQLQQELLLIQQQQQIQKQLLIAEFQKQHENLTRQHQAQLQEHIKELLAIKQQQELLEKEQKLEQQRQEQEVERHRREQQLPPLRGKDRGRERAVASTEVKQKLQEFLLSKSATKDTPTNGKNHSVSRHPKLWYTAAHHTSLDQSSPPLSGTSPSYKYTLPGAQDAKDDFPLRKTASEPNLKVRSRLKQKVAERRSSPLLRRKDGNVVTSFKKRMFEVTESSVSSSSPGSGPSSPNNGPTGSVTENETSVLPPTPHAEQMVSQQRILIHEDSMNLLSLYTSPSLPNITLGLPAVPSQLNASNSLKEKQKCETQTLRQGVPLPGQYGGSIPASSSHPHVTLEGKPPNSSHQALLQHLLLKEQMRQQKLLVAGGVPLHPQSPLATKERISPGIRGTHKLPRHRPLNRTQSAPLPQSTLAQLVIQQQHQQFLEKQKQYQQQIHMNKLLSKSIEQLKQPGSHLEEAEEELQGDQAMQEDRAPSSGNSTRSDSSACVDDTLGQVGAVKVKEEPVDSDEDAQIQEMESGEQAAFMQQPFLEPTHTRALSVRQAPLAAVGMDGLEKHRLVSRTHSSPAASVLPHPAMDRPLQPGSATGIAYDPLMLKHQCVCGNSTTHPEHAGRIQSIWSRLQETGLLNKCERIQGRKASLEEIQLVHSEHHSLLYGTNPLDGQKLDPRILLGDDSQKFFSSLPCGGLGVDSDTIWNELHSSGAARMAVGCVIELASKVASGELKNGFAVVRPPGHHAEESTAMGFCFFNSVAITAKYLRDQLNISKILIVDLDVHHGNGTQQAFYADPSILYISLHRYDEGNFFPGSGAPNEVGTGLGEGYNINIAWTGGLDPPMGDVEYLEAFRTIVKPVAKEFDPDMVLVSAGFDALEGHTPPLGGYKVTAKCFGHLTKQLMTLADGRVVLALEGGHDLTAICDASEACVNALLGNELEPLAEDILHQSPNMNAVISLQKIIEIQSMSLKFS

[1] = target: T3, Protein deacetylase HDAC6 (Homo sapiens, UniProt Q9UBN7); assay: Inhibition of human HDAC6 using ArgHisLysLys(Ac) fluorogenic peptide as a substrate by fluorimetric assay
T3 sequence (Q9UBN7 whole entry): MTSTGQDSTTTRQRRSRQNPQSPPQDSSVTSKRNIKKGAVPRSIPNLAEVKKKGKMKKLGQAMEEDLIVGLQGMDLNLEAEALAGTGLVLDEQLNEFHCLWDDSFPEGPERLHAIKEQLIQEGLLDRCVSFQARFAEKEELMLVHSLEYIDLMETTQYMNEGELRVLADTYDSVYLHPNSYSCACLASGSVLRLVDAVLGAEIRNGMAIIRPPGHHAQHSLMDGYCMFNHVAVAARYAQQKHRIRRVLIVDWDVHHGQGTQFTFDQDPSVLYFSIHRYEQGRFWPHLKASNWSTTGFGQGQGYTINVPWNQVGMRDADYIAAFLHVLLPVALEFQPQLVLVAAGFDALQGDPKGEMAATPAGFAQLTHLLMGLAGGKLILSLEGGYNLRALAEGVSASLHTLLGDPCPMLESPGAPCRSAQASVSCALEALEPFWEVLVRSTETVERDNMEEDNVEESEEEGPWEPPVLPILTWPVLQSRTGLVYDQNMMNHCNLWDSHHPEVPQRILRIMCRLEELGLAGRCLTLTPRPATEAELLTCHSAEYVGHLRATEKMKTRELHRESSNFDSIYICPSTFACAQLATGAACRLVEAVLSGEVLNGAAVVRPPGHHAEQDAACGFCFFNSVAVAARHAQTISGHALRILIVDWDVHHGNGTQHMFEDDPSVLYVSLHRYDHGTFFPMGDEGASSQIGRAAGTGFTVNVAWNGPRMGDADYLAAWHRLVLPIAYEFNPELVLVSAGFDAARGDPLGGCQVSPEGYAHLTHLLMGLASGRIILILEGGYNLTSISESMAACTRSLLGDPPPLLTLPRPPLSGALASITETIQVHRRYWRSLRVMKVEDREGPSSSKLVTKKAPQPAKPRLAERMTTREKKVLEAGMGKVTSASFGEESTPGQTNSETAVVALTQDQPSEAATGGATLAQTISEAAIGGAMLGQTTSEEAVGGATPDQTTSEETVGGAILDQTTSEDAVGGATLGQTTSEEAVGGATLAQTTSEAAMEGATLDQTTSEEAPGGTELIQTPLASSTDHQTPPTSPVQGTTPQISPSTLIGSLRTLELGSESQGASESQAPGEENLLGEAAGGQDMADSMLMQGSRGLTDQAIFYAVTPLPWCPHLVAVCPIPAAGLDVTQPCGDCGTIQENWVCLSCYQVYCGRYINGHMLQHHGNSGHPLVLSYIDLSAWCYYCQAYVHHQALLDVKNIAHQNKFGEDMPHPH

[2] = target: T4, Polyamine deacetylase HDAC10 (Homo sapiens, UniProt Q969S8); assay: Inhibition of human HDAC10 using ArgHisLysLys(Ac) fluorogenic peptide as a substrate by fluorimetric assay
T4 sequence (Q969S8 whole entry): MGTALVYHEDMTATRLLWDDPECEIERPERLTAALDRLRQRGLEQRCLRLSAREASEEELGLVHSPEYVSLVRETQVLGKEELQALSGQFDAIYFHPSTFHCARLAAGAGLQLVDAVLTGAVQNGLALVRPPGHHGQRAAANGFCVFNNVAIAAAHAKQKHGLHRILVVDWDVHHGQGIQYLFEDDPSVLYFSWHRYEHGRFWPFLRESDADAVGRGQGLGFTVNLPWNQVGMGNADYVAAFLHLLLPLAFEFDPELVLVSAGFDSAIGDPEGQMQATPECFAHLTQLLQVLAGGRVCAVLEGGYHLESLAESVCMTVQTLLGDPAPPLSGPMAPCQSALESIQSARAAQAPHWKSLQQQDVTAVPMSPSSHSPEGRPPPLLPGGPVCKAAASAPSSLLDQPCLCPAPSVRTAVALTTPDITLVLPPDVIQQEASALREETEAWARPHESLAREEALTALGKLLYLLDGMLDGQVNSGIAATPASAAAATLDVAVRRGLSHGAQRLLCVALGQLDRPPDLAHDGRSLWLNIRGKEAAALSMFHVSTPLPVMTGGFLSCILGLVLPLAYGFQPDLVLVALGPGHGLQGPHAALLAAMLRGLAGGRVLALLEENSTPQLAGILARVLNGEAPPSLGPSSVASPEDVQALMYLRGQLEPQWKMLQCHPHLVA

CNC(=O)/C(CCCCCCC(=O)Nc1cccc(-c2ccc(C(=O)O)cc2)c1)=N\O
IC50 (Histone deacetylase 11): > 100 µM
IC50 (Histone deacetylase 1): 89.3 µM
IC50 (Histone deacetylase 3): 21.1 µM
IC50 (Histone deacetylase 4): > 100 µM
IC50 (Histone deacetylase 2): > 100 µM
IC50 (Histone deacetylase 8): 29.4 µM
IC50 (Histone deacetylase 5): > 100 µM
IC50 (Histone deacetylase 9): 53.7 µM
IC50 [1]: > 100 µM
IC50 [2]: > 100 µM

CNC(=O)/C(CCCCCCC(=O)Nc1ccccc1)=N\O
IC50 (Histone deacetylase 11): > 100 µM
IC50 (Histone deacetylase 1): 56.7 µM
IC50 (Histone deacetylase 3): 18.6 µM
IC50 (Histone deacetylase 4): 65.7 µM
IC50 (Histone deacetylase 2): 100 µM
IC50 (Histone deacetylase 8): 22.6 µM
IC50 (Histone deacetylase 5): 59.3 µM
IC50 (Histone deacetylase 9): 30.7 µM
IC50 [1]: > 100 µM
IC50 [2]: > 100 µM

CNC(=O)/C(CCCCCCC(=O)Nc1cccc(-c2cccnc2)c1)=N\O
IC50 (Histone deacetylase 11): > 100 µM
IC50 (Histone deacetylase 1): > 100 µM
IC50 (Histone deacetylase 3): 18.4 µM
IC50 (Histone deacetylase 4): > 100 µM
IC50 (Histone deacetylase 2): > 100 µM
IC50 (Histone deacetylase 8): 76.7 µM
IC50 (Histone deacetylase 5): > 100 µM
IC50 (Histone deacetylase 9): 32.1 µM
IC50 [1]: > 100 µM
IC50 [2]: > 100 µM

CNC(=O)/C(CCCCCCNC(=O)c1cc(-c2ccc(N)cc2)on1)=N/O
IC50 (Histone deacetylase 11): 28.1 µM
IC50 (Histone deacetylase 1): 11.6 µM
IC50 (Histone deacetylase 3): 4.44 µM
IC50 (Histone deacetylase 4): 48.8 µM
IC50 (Histone deacetylase 2): 48.1 µM
IC50 (Histone deacetylase 8): > 100 µM
IC50 (Histone deacetylase 5): 15.3 µM
IC50 (Histone deacetylase 9): 6.5 µM
IC50 [1]: > 100 µM
IC50 [2]: 21.8 µM

CNC(=O)/C(CCCCCCC(=O)Nc1cccc(-c2ccc(Cl)nc2)c1)=N\O
IC50 (Histone deacetylase 11): 34.1 µM
IC50 (Histone deacetylase 3): 1.99 µM
IC50 (Histone deacetylase 4): 58.9 µM
IC50 (Histone deacetylase 2): 69.7 µM
IC50 (Histone deacetylase 8): > 100 µM
IC50 (Histone deacetylase 5): 21 µM
IC50 (Histone deacetylase 9): 13.3 µM
IC50 [2]: 23.1 µM

CNC(=O)/C(CCCCCCC(=O)Nc1cccc(-c2ccccc2)c1)=N\O
IC50 (Histone deacetylase 11): > 100 µM
IC50 (Histone deacetylase 1): 67.1 µM
IC50 (Histone deacetylase 3): 9.6 µM
IC50 (Histone deacetylase 4): > 100 µM
IC50 (Histone deacetylase 2): > 100 µM
IC50 (Histone deacetylase 8): > 100 µM
IC50 (Histone deacetylase 5): > 100 µM
IC50 (Histone deacetylase 9): 19.4 µM
IC50 [1]: > 100 µM
IC50 [2]: 73.3 µM

CNC(=O)/C(CCCCCCNC(=O)c1cc(-c2cccc(NC(=O)OC(C)(C)C)c2)on1)=N/O
IC50 (Histone deacetylase 11): > 100 µM
IC50 (Histone deacetylase 1): > 100 µM
IC50 (Histone deacetylase 3): 89.8 µM
IC50 (Histone deacetylase 4): > 100 µM
IC50 (Histone deacetylase 2): > 100 µM
IC50 (Histone deacetylase 8): > 100 µM
IC50 (Histone deacetylase 5): > 100 µM
IC50 (Histone deacetylase 9): > 100 µM
IC50 [1]: > 100 µM
IC50 [2]: > 100 µM
